Experiments:
Type in all cases: physicochemical
[1] = Decomposition rate of carboplatin in aqueous solution in dependence on the concentration of 1,1-cyclobutanedicarboxylic acid; settings: for decomposition rate of carboplatin (r): carboplatin 10.0 mg·ml^−1
Description: The rate of hydrolysis of carboplatin to a monoaquacomplex of the formula (1) has been presumed to be of the first order in relation to carboplatin concentration and independent to water concentration: [formula]
Dependences on concentration according to equations /1-2/ and /1-3/ were evaluated by linear regression and the rate constant and/or the reaction rate of the carboplatin decomposition have been calculated.
Study of the decomposition rate of carboplatin in dependence on the concentration of 1,1-cyclobutanedicarboxylic acid.
Mean starting concentration of carboplatin was 10.0 mg·ml^−1. Starting concentrations of 1,1-cyclobutanedicarboxylic acid were 0.017, 0.129, 1.189 and 14.804 mg·ml^−1. The temperature and relative humidity during storage was 25° C./60% and 35° C./60%. The vials with samples were stored stopper upright.
The decrease of carboplatin content was calculated as a difference of carboplatin content between a reference and measured sample. The concentration data were evaluated according to equation /1-2/, whereby, due to a good linear relation, the data were evaluated by linear regression.

[2] = Decomposition rates of carboplatin calculated from equation /1-7/ (Arrhenius evaluation); settings: for calculated decomposition rate of carboplatin (r) / rate increase: 25° C.; for calculated decomposition rate of carboplatin (r): from equation /1-7/
Description: After evaluation of Arrhenius equation, the activation energy EA was calculated:
For the reference temperature of 35° C., at which the best determination coefficient has been obtained (R^2=0.99), the following dependence of the decomposition rate of carboplatin on the concentration of the present 1,1-cyclobutanedicarboxylic acid and on the temperature may be obtained from the equations /1-5/ and /1-6/: [formula]
wherein r is expressed in mol·m^−3·s^−1 and CCBDCA is expressed in mol·m^−3.
Based on the equation /1-7/, it is possible to calculate decomposition rates of carboplatin at the temperature of 25° C. and for different concentrations of 1,1-cyclobutanedicarboxylic acid: […]

[3] = Decomposition rate of carboplatin in aqueous solution in dependence on the concentration of 1,1-cyclobutanedicarboxylic acid; settings: 0.1 M phosphate buffer at 37° C. versus 1.4·10^−4M CBDCA-buffer at 40° C.

Structure (SMILES): N.N.O=C([O-])C1(C(=O)[O-])CCC1.[Pt+2] [carboplatin, cis-diammin-1,1-cyclobutanedicarboxylatoplatinum(II) complex]
- increase of the decomposition rate of carboplatin ([1]; enhancement of temperature of 10° C.): approximately tenfold
- decomposition rate of carboplatin (r) ([1]; storage 25° C./60% RH, CBDCA 0.017 mg·ml^−1): 4.0 · 10^−9 mol·m^−3·s^−1
- decomposition rate of carboplatin (r) ([1]; storage 25° C./60% RH, CBDCA 0.129 mg·ml^−1): 4.0 · 10^−9 mol·m^−3·s^−1
- decomposition rate of carboplatin (r) ([1]; storage 25° C./60% RH, CBDCA 1.189 mg·ml^−1): 9.4 · 10^−9 mol·m^−3·s^−1
- decomposition rate of carboplatin (r) ([1]; storage 25° C./60% RH, CBDCA 14.804 mg·ml^−1): 2.2 · 10^−8 mol·m^−3·s^−1
- decomposition rate of carboplatin (r) ([1]; storage 35° C./60% RH, CBDCA 0.017 mg·ml^−1): 4.9 · 10^−8 mol·m^−3·s^−1
- decomposition rate of carboplatin (r) ([1]; storage 35° C./60% RH, CBDCA 0.129 mg·ml^−1): 5.1 · 10^−8 mol·m^−3·s^−1
- decomposition rate of carboplatin (r) ([1]; storage 35° C./60% RH, CBDCA 1.189 mg·ml^−1): 7.3 · 10^−8 mol·m^−3·s^−1
- decomposition rate of carboplatin (r) ([1]; storage 35° C./60% RH, CBDCA 14.804 mg·ml^−1): 1.7 · 10^−7 mol·m^−3·s^−1
- calculated decomposition rate of carboplatin (r) ([2]; CBDCA 0.005 mg/ml): 4.48·10^−9 mol·m^−3·s^−1
- calculated decomposition rate of carboplatin (r) ([2]; CBDCA 0.150 mg/ml (as in Ribocarbol L)): 4.58·10^−9 mol·m^−3·s^−1
- rate increase ([2]; CBDCA 0.150 mg/ml versus 0.005 mg/ml): 2.2%
- calculated decomposition rate of carboplatin (r) ([2]; CBDCA 0.250 mg/ml (lower limit of EP 642 792)): 4.65·10^−9 mol·m^−3·s^−1
- rate increase ([2]; CBDCA 0.250 mg/ml versus 0.005 mg/ml): 4%
- activation energy EA of carboplatin decomposition ([2]; Arrhenius equation, from rates at 25 and 35° C.): 190 000 J·mol^−1
- rate constant k, ratio [3]: approximately 200 times
